Laboratory results: PMC13477270 (Nature structural & molecular biology, 2025)

Legend:
[1] = test system: iTRIM37 KO RPE1 cells (PLK4 inhibition); assay type: cell-based; conditions: centrinone 100 or 150 nM, before TRIM37 knockout with doxycycline
iTRIM37 KO RPE1 cells = assay type: cell-based; conditions: centrinone pretreatment, then TRIM37 knockout with doxycycline

## COc1c(Nc2cc(C)[nH]n2)nc(Sc2ccc(S(=O)(=O)Cc3cccc([N+](=O)[O-])c3F)cc2F)nc1N1CCOCC1 [centrinone]
[1]
  centrosome depletion: depleted centrosomes
iTRIM37 KO RPE1 cells
  frequency of centrobin condensate formation after centrosome loss: at a frequency similar to that in constitutive TRIM37Δ cells with centrosomes
